# Reference: patent publication US8343945B2, “Carriers, formulations, methods for formulating unstable active agents for external application and uses thereof” (Foamix Ltd., priority 2007, dated 2013)
# “Also recorded” adds a separate entry of the source.
# Experiments:
# [1] = Source text: In one or more embodiments of the present disclosure, the foamable composition includes a potent solvent, in addition to or in place of one of the hydrophobic solvents, polar solvents or emollients of the composition. A potent solvent is a solvent other than mineral oil that solubilizes a specific active agent substantially better than a hydrocarbon solvent such as mineral oil or petrolatum.
# [2] = Doxycycline Monohydrate compatibility test with excipients; assay type: physicochemical; conditions: for Visual inspection after the storage at 25° C. / Visual inspection after the storage at 50° C. / Visual inspection at T-0 / Visual inspection after the storage at 40° C.: Mixtures of 1.04% w/w of Doxycycline Monohydrate with the ingredient; for Visual inspection after the storage at 25° C.: stored at 25° C. for two weeks; for Visual inspection after the storage at 50° C.: stored at 50° C. for two weeks; for Compatibility with Doxycycline Monohydrate: Summary, compatibility tested after the storage for up to 3 weeks; for Visual inspection after the storage at 40° C.: stored at 40° C. for two weeks; for Compatibility with Doxycycline Monohydrate (text): as summarised in text, 40° and 50° C. for two weeks where stated
# Description: Different compositions of hydrophilic and hydrophobic solvents containing Doxycycline Hyclate (Set I and Set II) and Doxycycline Monohydrate (Set III) were prepared by weighing the antibiotic in a glass vial and shaking overnight with each solvent investigated. Mixtures of Doxycycline salts 1.04% w/w with solid excipients were prepared in a similar way as for Minocycline HCl.
# A similar compatibility test was performed on another form of Doxycycline-Doxycycline Monohydrate. Table 17b and Table 18.
# [3] = Doxycycline Hyclate compatibility test with excipients; assay type: physicochemical; conditions: for Visual inspection after the storage at 25° C.: stored at 25° C. for two weeks; for Visual inspection after the storage at 40° C.: stored at 40° C. for two weeks; for Visual inspection after the storage at 50° C.: stored at 50° C. for two weeks
# Description: Different compositions of hydrophilic and hydrophobic solvents containing Doxycycline Hyclate (Set I and Set II) and Doxycycline Monohydrate (Set III) were prepared by weighing the antibiotic in a glass vial and shaking overnight with each solvent investigated.
# Group II included Doxycycline Hyclate mixed with various vehicles with addition of antioxidants like alpha tocopherol, butylated hydroxytolyene (BHT), ascorbic acid.
# [4] = Minocycline HCl compatibility tests with excipients (colour change, HPLC assay); assay type: physicochemical; conditions: for Compatibility with Minocycline HCL: Summary, compatibility tested after the storage for up to 3 weeks
# Description: About 0.5 g foam or pre-foam formulation is dissolved with diluent (65% phosphate buffer: 35% Acetonitrile (ACN)) in a 25 mL volumetric flask. The sample is shaken […] on an inverted shaker stand for 10 min at room temperature. The resulting suspension is centrifuged for 5 minutes at 4000 rpm. The supernatant is separated by vacuum pump and filtered thereafter through a 0.45 μm PTFE+GL filter. The first few drops of the filtrate are discarded. The resultant clear solution layer is analyzed by HPLC using columnRP-8. The content of MCH is calculated against an MCH standard 0.4 mg/mL (concentration). The content of 4-epiminocycline is calculated against MCH standard 0.02 mg/mL (concentration).
# Color is tested by visual observation and in particular by comparison to “Pantone® formula guide solid uncoated” colors. […] Minocycline changes color to orange/greenish with oxidation or complexation. These oxidized colors are not desirable. Colors such as 609U/608U/610U are indicative of degradation by the tetracycline antibiotic.
# For convenience the excipients were divided into four different groups (I-IV).
# Different compositions of hydrophilic and hydrophobic solvents containing minocycline HCl were prepared by weighing the antibiotic in a glass vial and shaking overnight with each solvent investigated (Group I and II).
# Mixtures of Minocycline HCl with solid excipients like titanium dioxide, stearyl alcohol, myristyl alcohol etc were prepared by suspending Minocycline HCl in oil with stirring and then adding the solid ingredient as a powder with stirring at room temperature (Group III an IV).
# Oxidation of minocycline after the storage at various temperatures was detected by color change. Assay for content of the active pharmaceutical ingredient (API) and degradation product (4-epiminocycline) was determined in some samples.
# A series of experiments were performed to evaluate which mixture of components/ingredients were compatible or incompatible with minocycline. Each component or combinations of components were mixed with either 1.1% or 2.2% Minocycline HCl. The glass vials containing the formulations were wrapped in aluminum—and were subjected to a range of temperatures 25° C.; 30° C.; 40° C.; 50 C; for between one week to about 3 weeks. The best results are shown as “compatible no oxidation”.
# [5] = Minocycline in hydrophilic vehicles dried with Magnesium Sulphate; assay type: physicochemical; conditions: vehicle dried by the Magnesium Sulfate procedure
# Description: A special procedure for drying of water residues was developed. Magnesium Sulphate was added to the glass beaker filled with one of the hydrophilic vehicles. The mixture was stirred during overnight and centrifuged the following morning. Clear supernatant was collected in a separate vessel and stored in a dessicator.
# The following were tested using the above procedure: mixtures of Minocycline with PEG 200, PEG 400, glycerol, prolylene glycol, polyethylene glycol.
# [6] = cited from earlier work
# [7] = Summary, compatibility tested after the storage for up to 3 weeks
# [8] = Mixtures of 1.04% w/w of Doxycycline Hyclate with the ingredient
# [9] = 40° C. and 50° C. for two weeks where stated
# [10] = Group II, mixture with 1.1% of Minocycline HCl, 10 days at 40° C.
# [11] = Group II, mixture with 1.1% of Minocycline HCl, T-0
# [12] = waterless medium with alpha-tocopherol and ascorbic acid
molecule,measurement,setting,value
CCCCC(=O)O[C@]1(C(=O)CO)[C@@H](C)C[C@H]2[C@@H]3CCC4=CC(=O)C=C[C@]4(C)[C@@]3(F)[C@@H](O)C[C@@]21C [Betamethasone valerate],Solubility in glycofurol,[1],more than 1%
same,Solubility in mineral oil,[1],< 0.01%
OCCCCO [Butylene glycol],Visual inspection after the storage at 25° C.,[2],Orange solution
same,Visual inspection after the storage at 50° C.,[2],black solution
same,Compatibility with Doxycycline Monohydrate,[2],No
same,Compatibility with Doxycycline Hyclate,[3]; [7],No
same,Compatibility with Minocycline HCL,[4],No
C[Si]1(C)O[Si](C)(C)O[Si](C)(C)O[Si](C)(C)O[Si](C)(C)O1 [Cyclomethicone 5 NF],Compatibility with Doxycycline Monohydrate,[2],Yes
same,Compatibility with Doxycycline Hyclate,[3]; [7],Yes
same,Compatibility with Minocycline HCL,[4],Yes
CC(C)OC(=O)CCCCC(=O)OC(C)C [Diisopropyl adipate],Compatibility with Doxycycline Monohydrate,[2],No
same,Compatibility with Doxycycline Hyclate,[3]; [7],Yes
same,Compatibility with Minocycline HCL,[4],Yes
CO[C@H]1CO[C@H]2[C@@H]1OC[C@H]2OC [Dimethyl Isosorbide],Visual inspection at T-0,[2],yellow solution
same,Visual inspection after the storage at 25° C.,[2],orange solution
same,Visual inspection after the storage at 40° C.,[2],orange orange
same,Visual inspection after the storage at 50° C.,[2],Orange solution
same,Compatibility with Doxycycline Monohydrate,[2],No
same,Visual inspection at T-0,"[3]; Mixtures of 1.04% w/w of Doxycycline Hyclate with the ingredient, T-0 (two-week study)",yellow solution
same,Visual inspection after the storage at 25° C.,[3]; [8],Yellow solution
same,Visual inspection after the storage at 40° C.,[3]; [8],Brownish orange
same,Visual inspection after the storage at 50° C.,[3]; [8],Orange solution
same,Compatibility with Doxycycline Hyclate,[3]; [7],No
same,Compatibility with Minocycline HCL,[4],No
CCO [Ethanol 95%],Visual inspection after the storage at 25° C.,[2],Brown solution
same,Visual inspection after the storage at 40° C.,[2],Brown solution
same,Visual inspection after the storage at 50° C.,[2],Black solution
same,Compatibility with Doxycycline Monohydrate,[2],No
same,Compatibility with Doxycycline Monohydrate (text),[2],changed their colour from yellow to orange
same,Compatibility with Doxycycline Monohydrate (text),[2]; listed as ethanol 95%,oxidized
same,Compatibility with Doxycycline Hyclate,[3]; [9],stable
same,Compatibility with Doxycycline Hyclate,[3]; [7],Yes
same,Compatibility with Minocycline HCl,[4],changed their colour from yellow to orange
same,"4-epiminocycline Assay (% w/w), 10 days at 40° C.",[4]; [10],0.39 % w/w
same,"Minocycline Assay (% w/w), 10 days at 40° C.",[4]; [10],0.52 % w/w
same,"4-epiminocycline Assay (% w/w), T-0",[4]; [11],0.021 % w/w
same,"Minocycline Assay (% w/w), T-0",[4]; [11],0.97 % w/w
same,Compatibility with Minocycline HCL,[4],No
OCC(O)CO [Glycerol],Compatibility with Doxycycline Monohydrate,[2],No
same,Oxidation of Minocycline HCL after dissolution in dried vehicle,[5],oxidized quickly
same,Compatibility with Doxycycline Hyclate,[3]; [7],No
same,Compatibility with Minocycline HCl,[4],intensive oxidation
same,Compatibility with Minocycline HCL,[4],No
CCCC(=O)O[C@]1(C(=O)CO)CC[C@H]2[C@@H]3CCC4=CC(=O)CC[C@]4(C)[C@H]3[C@@H](O)C[C@@]21C [Hydrocortisone butyrate],Solubility in glycofurol,[1],more than 1%
same,Solubility in mineral oil,[1],< 0.01%
CC(C)CCCCCCCCCCCCCCC(=O)O [Isostearic Acid],Compatibility with Doxycycline Hyclate,[3]; [7],Yes
same,Compatibility with Minocycline HCL,[4],No
CC(=O)N1CCN(c2ccc(OCC3COC(Cn4ccnc4)(c4ccc(Cl)cc4Cl)O3)cc2)CC1 (stereo not drawn) [Ketoconazole],Solubility in dimethyl isosorbide,[1],more than 1%
same,Solubility in glycofurol,[1],more than 1%
same,Solubility in mineral oil,[1],< 0.01%
same,Solubility in propylene glycol,[1],more than 1%
Cc1cnc(NC(=O)C2=C(O)c3ccccc3S(=O)(=O)N2C)s1 [Meloxicam],Solubility in mineral oil,[1],< 0.001%
Cc1ncc([N+](=O)[O-])n1CCO [Metronidazole],Solubility in dimethyl isosorbide,[1],more than 1%
same,Solubility in mineral oil,[1],< 0.01%
C/C(=C\C(=O)OCCCCCCCCC(=O)O)C[C@@H]1OC[C@H](C[C@@H]2O[C@H]2[C@@H](C)[C@H](C)O)[C@@H](O)[C@H]1O [Mupirocin],Solubility in dimethyl isosorbide,[1],more than 1%
same,Solubility in glycofurol,[1],more than 1%
same,Solubility in mineral oil,[1],< 0.01%
same,Solubility in polyethylene glycol 400 (PEG 400),[1],more than 1%
same,Solubility in propylene glycol,[1],more than 1%
CCCCCCCCCCCCCCO [Myristyl alcohol],Compatibility with Doxycycline Hyclate,[3]; [7],Yes
same,Compatibility with Minocycline HCL,[4],Yes
CCCCCCCCCCC(CO)CCCCCCCC (stereo not drawn) [Octyldodecanol],Compatibility with Doxycycline Monohydrate,[2],No
same,Compatibility with Doxycycline Monohydrate (text),[2],incompatibility
same,Compatibility with Doxycycline Hyclate,[3]; [9],incompatibility
same,Compatibility with Doxycycline Hyclate,[3]; [7],No
same,Compatibility with Minocycline HCl,[4],full compatibility; also recorded: compatible
same,Compatibility with Minocycline HCL,[4],Yes
CCCCCCCC/C=C\CCCCCCCCO [Oleyl alcohol],Compatibility with Doxycycline Hyclate,[3]; [7],Yes
same,Compatibility with Minocycline HCL,[4],Yes
CC(=O)[C@H]1CC[C@H]2[C@@H]3CCC4=CC(=O)CC[C@]4(C)[C@H]3CC[C@]12C [Progesterone],Solubility in mineral oil,[1],< 0.001%
CC(O)CO (stereo not drawn) [Propylene glycol],Compatibility with Doxycycline Monohydrate,[2],No
same,Oxidation of Doxycycline Monohydrate despite added anti oxidants,[2]; [12],did not prevent the oxidation
same,Oxidation of Minocycline HCL after dissolution in dried vehicle,[5],oxidized quickly
same,Compatibility with Doxycycline Hyclate,[3]; [7],No
same,Oxidation of Doxycycline Hyclate despite added anti oxidants,[3]; [12],did not prevent the oxidation
same,Compatibility with Minocycline HCL,[4],No
same,Oxidation of Minocycline HCL despite added anti oxidants,[4]; [12],did not prevent the oxidation
CCCCCCCCCCCCCCCCCCO [Stearyl alcohol],Compatibility with Doxycycline Hyclate,[3]; [7],Yes
same,Compatibility with Minocycline HCL,[4],Yes
C[C@H]1c2cccc(O)c2C(=O)C2=C(O)[C@]3(O)C(=O)C(C(N)=O)=C(O)[C@@H](N(C)C)[C@@H]3[C@@H](O)[C@@H]21 [doxycycline monohydrate],Solubility in alcohol,[6]; alcohol,sparingly soluble
same,Solubility in water,[6]; water,very slightly soluble
Sorbitan Monolaurate,Visual inspection at T-0,[2],Brown mixture
same,Visual inspection after the storage at 25° C.,[2],orange solution
same,Visual inspection after the storage at 40° C.,[2],Brown solution
same,Visual inspection after the storage at 50° C.,[2],brown solution
same,Compatibility with Doxycycline Monohydrate,[2],No
same,Visual inspection after the storage at 25° C.,[3]; [8],Brown solution
same,Visual inspection after the storage at 40° C.,[3]; [8],Brown solution
same,Visual inspection after the storage at 50° C.,[3]; [8],Black solution
same,Compatibility with Doxycycline Hyclate,[3]; [7],No
same,Compatibility with Minocycline HCL,[4],No
Sorbitan Monostearate,Compatibility with Doxycycline Hyclate,[3]; [7],Yes
same,Compatibility with Minocycline HCL,[4],Yes
